# Laboratory results reported in publication PMC3688708 (PLoS ONE, 2013).
# Where a name gives a salt, the structure may show the parent alone. Read-outs that look alike come from different tables or passages of the source.
# Key:
# [1] = molecular target: T1, PA63-channel (Bacillus anthracis, UniProt P13423); experiment: biochemical; type: binding
# [2] = molecular target: T1, PA63-channel; experiment: biochemical; type: binding; remark: listed apart in the source
# [3] = tested on: J774A.1 macrophages; type: cell-based; details: for amount of lysed cells (LF-induced cell lysis after acidic pulse): pH 5
# [4] = tested on: J774A.1 cells; details: 100 µM
# [5] = tested on: J774A.1 cells; type: cell-based
# [6] = molecular target: T1, PA63-channel; details: cited from earlier work
# [7] = molecular target: T1, PA63-channel; details: cited from earlier work; remark: listed apart in the source
# [8] = read-out: Half saturation constant KS, pH 6
# T1 sequence (P13423 197-764 limits assumed): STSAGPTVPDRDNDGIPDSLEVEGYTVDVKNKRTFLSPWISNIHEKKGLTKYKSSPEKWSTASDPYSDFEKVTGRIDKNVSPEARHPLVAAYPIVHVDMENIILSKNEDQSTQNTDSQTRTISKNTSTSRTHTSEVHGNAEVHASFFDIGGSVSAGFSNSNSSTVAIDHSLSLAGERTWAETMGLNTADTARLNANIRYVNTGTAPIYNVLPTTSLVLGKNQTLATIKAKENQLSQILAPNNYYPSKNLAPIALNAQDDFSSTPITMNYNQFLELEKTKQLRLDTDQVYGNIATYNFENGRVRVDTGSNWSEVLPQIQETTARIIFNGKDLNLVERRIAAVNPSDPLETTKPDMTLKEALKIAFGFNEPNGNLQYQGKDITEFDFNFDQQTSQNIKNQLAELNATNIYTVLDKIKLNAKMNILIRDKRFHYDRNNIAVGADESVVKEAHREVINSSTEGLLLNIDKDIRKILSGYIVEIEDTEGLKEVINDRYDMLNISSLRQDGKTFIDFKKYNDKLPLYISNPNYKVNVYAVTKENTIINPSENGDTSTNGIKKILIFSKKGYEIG
molecule,measurement,setting,value
"O=[N+]([O-])c1cccc(-n2c(-c3ccc(Br)cc3)c[n+]3ccccc23)c1 (as salt: bromide) [HA1495, 1-(3-nitrophenyl)-2-(4-bromophenyl)imidazo[1,2-a]pyridinium bromide]",melting point,,176 to 177 °C
Clc1ccc(OCn2cc[n+]3ccccc23)c(Cl)c1 [HA 486],Kd,[1],32 µM
same,off-rate k-1,[1],"3,500 1/s"
same,on-rate constant k1,[1],1.2e+08 M⁻¹ s⁻¹
same,K (stability constant from ratio k1/k-1),[1]; pH 6,"34,000 L/mol"
same,k1 (on-rate constant),[1]; pH 6,1.2×10^8 L/(molxs)
same,k-1 (off-rate constant),[1]; pH 6,"3,500 1/s"
same,K*,[2],"38,000 L/mol"
same,Kd,[2]; Half saturation constant KS,27 µM
same,Stability constant K,[2]; pH 6,"38,000 L/mol"
COc1ccc(-n2c(=S)n(-c3ccc([N+](=O)[O-])cc3)c3cccc[n+]32)cc1 [HA 1885],Kd,[2]; Half saturation constant KS,110 µM
same,Stability constant K,[2]; pH 6,"10,800 L/mol"
CCOC(=O)c1ccc(-n2c(-c3ccc(Br)cc3)c[n+]3cccc(O)c23)cc1 [HA 1504],Kd,[2]; Half saturation constant KS,12 µM
same,Stability constant K,[2]; pH 6,"82,900 L/mol"
"1-(4-chlorophenyl)-2-(4-bromophenyl)imidazo[1,2-a]pyridinium tetrafluoroborate [HA1568]",viability of J774A.1 cells by MTS-assay after acidic shift with PA63/LF,[3],protective effect
same,amount of lysed cells (LF-induced cell lysis after acidic pulse),[3],significantly reduced
same,off-rate k-1,[1],260 s⁻¹
same,on-rate constant k1,[1],1.3e+08 M⁻¹ s⁻¹
same,K (stability constant from ratio k1/k-1),[1]; pH 6,"511,000 L/mol"
same,k1 (on-rate constant),[1]; pH 6,1.3×10^8 L/(molxs)
same,k-1 (off-rate constant),[1]; pH 6,260 s⁻¹
same,Kd,"[1]; pH 6, read-out: KS",2 µM
same,cell viability (MTS assay),[4]; 24 h,no effect on cell viability
same,K*,[2],"478,000 L/mol"
same,Stability constant K,[2]; pH 6,"478,000 L/mol"
same,Kd,"[2]; pH 6, read-out: Half saturation constant KS",2.7 µM
same,lethal toxin-treated cells that survived in the presence of the substance,[5],about 80%
same,protection from lysis by PA63/LF in the medium,[5],protected
"O=[N+]([O-])c1cccc(-n2c(-c3ccc(Br)cc3)c[n+]3ccccc23)c1 [HA1495, 1-(3-nitrophenyl)-2-(4-bromophenyl)imidazo[1,2-a]pyridinium bromide]",amount of lysed cells (LF-induced cell lysis after acidic pulse),[3],significantly reduced
same,cell viability (MTS assay),[4]; 24 h,no effect on cell viability
same,Kd,[2]; Half saturation constant KS,3.6 µM
same,Stability constant K,[2]; pH 6,"274,000 L/mol"
same,protection from lysis by PA63/LF in the medium,[5],moderate inhibitory effect
CCN(CC)CCCC(C)Nc1ccnc2cc(Cl)ccc12 (stereo not shown) [Chloroquine],K (stability constant from ratio k1/k-1),[6],"1,030,000 L/mol"
same,k1 (on-rate constant),[6],3.6×10^8 L/(molxs)
same,k-1 (off-rate constant),[6],350 s⁻¹
same,Kd,[6]; read-out: KS,0.97 µM
same,K*,[7],"676,000 L/mol"
same,Stability constant K,[7]; pH 6,"676,000 L/mol"
same,Kd,[7]; [8],1.5 µM
same,Kd,[7]; read-out: Half saturation constant Ks,1.43 µM
Cn1c(COc2ccc(Cl)cc2)n[n+]2ccccc12 [HA 1196],Kd,[2]; Half saturation constant KS,260 µM
same,Stability constant K,[2]; pH 6,"3,800 L/mol"
O=C(C[n+]1ccccc1Cl)c1ccc([N+](=O)[O-])cc1 [HA 1371],Kd,[2]; Half saturation constant KS,310 µM
same,Stability constant K,[2]; pH 6,"3,200 L/mol"
Clc1cc(Cl)c(-n2nnc3cccc[n+]32)c(Cl)c1 [HA 728],Kd,[2]; Half saturation constant KS,85 µM
same,Stability constant K,[2]; pH 6,"11,800 L/mol"
Clc1ccc(OCn2cn[n+]3ccccc23)c(Cl)c1 [HA 766],Kd,[2]; Half saturation constant KS,36 µM
same,Stability constant K,[2]; pH 6,"29,400 L/mol"
O=c1[nH]c2cccc[n+]2c2ccccc12 [HA 47],Stability constant K,[2]; pH 6,500 L/mol
same,Kd,[2]; [8],1990 µM
"O=[N+]([O-])c1ccc(-c2c[n+]3ccccc3n2-c2ccc(O)cc2)cc1 [HA1383, 1-(4-hydroxyphenyl)-2-(4-nitrophenyl)imidazo[1,2-a]pyridinium tetrafluoroborate]",amount of lysed cells (LF-induced cell lysis after acidic pulse),[3],significantly reduced
same,melting point,,171 to 173 °C
same,Kd,[1],1.8 µM
same,off-rate k-1,[1],352 s⁻¹
same,K (stability constant from ratio k1/k-1),[1]; pH 6,"560,000 L/mol"
same,k1 (on-rate constant),[1]; pH 6,2.1×10^8 L/(molxs)
same,k-1 (off-rate constant),[1]; pH 6,370 s⁻¹
same,cell viability (MTS assay),[4]; 7 h,no effect on cell viability
same,cell viability (MTS assay),[4]; 24 h,slightly decreased
same,K (Lineweaver-Burke plot),[2],"740,000 1/M"
same,K*,[2],"749,000 L/mol"
same,Kd,[2]; Half saturation constant KS,1.3 µM
same,Kd,[2]; Half saturation constant Ks,1.34 µM
same,protection from lysis by PA63/LF in the medium,[5],moderate inhibitory effect
Brc1ccc(-c2csc3cccc[n+]23)cc1 [HA 112],Kd,[2]; Half saturation constant KS,57 µM
same,Stability constant K,[2]; pH 6,"18,500 L/mol"
COc1ccc([N+](=O)[O-])cc1-n1nnc2cccc[n+]21 [HA 1212],Stability constant K,[2]; pH 6,"7,000 L/mol"
same,Kd,[2]; [8],150 µM
O=c1c2ccccc2[n+]2ccccc2n1Cc1cccc2ccccc12 [HA 1882],Kd,[2]; Half saturation constant KS,130 µM
same,Stability constant K,[2]; pH 6,"7,900 L/mol"
Clc1ccc(-n2nnc3ccc4ccccc4[n+]32)c(Cl)c1 [HA 1221],Kd,[2]; Half saturation constant KS,170 µM
same,Stability constant K,[2]; pH 6,"6,000 L/mol"
